The values that follow come from ChEMBL document CHEMBL5380834, “Design, Synthesis, and Biological Evaluation of Androgen Receptor (AR) Antagonist-Heat Shock Protein 90 (Hsp90) Inhibitor Conjugates for Targeted Therapy of Castration-Resistant Prostate Cancer” (J Med Chem, 2023).

Activity calls are given as the source filed them. The calls are words filed in the database; no cut-off is given here.

In data set [1] the test system is LNCaP. The data set is described as follows: Cytotoxicity against AR-positive human LNCaP cells assessed as inhibition of cell growth incubated for 5 days in presence of AR agonist, R1881 in charcoal stripped serum by WST-1 assay. Type of data set: functional, cell-based. The following applies: 120 h. (Tetrazolium dyes change colour on reduction, which living cells bring about.)

Data set [2] relates to CWR22R. The data set is described as follows: Cytotoxicity against human 22Rv1 cells assessed as inhibition of cell growth incubated for 5 days in presence of AR agonist, R1881 by WST-1 assay. Type of data set: functional, cell-based. The following applies: 22Rv1, 120 h.
For data set [3], the system named is Androgen receptor (Homo sapiens), P10275 [UNDEFINED MUTATION]. Description: Induction of AR-V7 degradation in human 22Rv1 cells at 100 nM by Western blot analysis. Format: cell-based. To be noted: time <= 48.0 hrs, TDE = time-dependent effect. In general terms: A western blot detects proteins with antibodies after separation by electrophoresis.
The nature of data set [4]: Drug uptake in human RWPE-1 cells assessed as increase in fluorescence at 1 uM incubated for 1 hr by DAPI staining based confocal microscopy. Format: ADME, cell-based. The following applies: rwpe-1, 1 h.
The nature of data set [5]: Drug uptake in human HEK293T cells assessed as increase in fluorescence at 1 uM incubated for 1 hr by DAPI staining based confocal microscopy. To be noted: hek-293t. Format: ADME, cell-based.
In data set [6] the test system is CWR22R. The data set is described as follows: Antitumor activity against human 22Rv1 cells xenografted in BALB/c nude mouse assessed as downregulation of AR-FL level at 2.5 mg/kg, ip administered once every 4th day for 3 weeks. Type of data set: functional, organism-based. Background: A xenograft is tissue or cells of one species grown in another, often human tumour cells in immunodeficient mice.

Data set [7] has as its system Androgen receptor (Homo sapiens), P10275 [UNDEFINED MUTATION]. The data set is described as follows: Induction of AR-V7 degradation in human 22Rv1 cells measured upto 24 hrs by Western blot analysis. Format: cell-based. To be noted: dose 1000.0 nM.
Data set [8] deals with CWR22R. The data set is described as follows: Antitumor activity against human 22Rv1 cells xenografted in BALB/c nude mouse assessed as downregulation of AR-V7 level at 2.5 mg/kg, ip administered once every 4th day for 3 weeks. Type of data set: functional, organism-based.
Data set [9] can be described thus: Drug uptake in human 22Rv1 cells assessed as increase in fluorescence at 1 uM incubated for 1 hr by DAPI staining based confocal microscopy. Type of data set: ADME, cell-based. To be noted: cwr22r.
Data set [10] has as its system CWR22R. Description: Antitumor activity against human 22Rv1 cells xenografted in BALB/c nude mouse assessed as reduction in tumor growth at 5 mg/kg, ip administered once every 4th day for 3 weeks. Type of data set: functional, organism-based.
The nature of data set [11]: Drug uptake in liver of nude mouse xenografted with human 22Rv1 cells assessed as increase in fluorescence signal at 0.5 mg/kg, iv measured after 2 hrs by fluorescence imaging analysis. Type of data set: ADME, organism-based, CWR22R. To be noted: in vivo.
Data set [12] is described as follows: Drug uptake in kidney of nude mouse xenografted with human 22Rv1 cells assessed as increase in fluorescence signal at 0.5 mg/kg, iv measured after 2 hrs by fluorescence imaging analysis. Format: ADME, organism-based, CWR22R. The following applies: in vivo.
The nature of data set [13]: Drug uptake in HEK293T cells assessed as drug internalization at 1 uM incubated for 1 hr by DAPI staining based confocal microscopy. Type of data set: ADME, cell-based. The following applies: human, hek-293t.
Data set [14] in a line: Drug uptake in Lung of nude mouse xenografted with human 22Rv1 cells assessed as increase in fluorescence signal at 0.5 mg/kg, iv measured after 2 hrs by fluorescence imaging analysis. Type of data set: ADME, organism-based, CWR22R. To be noted: in vivo.
The nature of data set [15]: Drug uptake in tumor of nude mouse xenografted with human 22Rv1 cells assessed as increase in fluorescence signal at 0.5 mg/kg, iv measured after 2 hrs by fluorescence imaging analysis. Format: ADME, organism-based, Neoplasm, CWR22R. To be noted: in vivo.
Data set [16] is described as follows: Drug uptake in human 22Rv1 cells assessed as drug internalization at 1 uM incubated for 1 hr by DAPI staining based confocal microscopy. Format: ADME, cell-based. The following applies: cwr22r.
Data set [17] can be described thus: Drug uptake in human RWPE-1 cells assessed as drug internalization at 1 uM incubated for 1 hr by DAPI staining based confocal microscopy. Format: ADME, cell-based. The following applies: rwpe-1, 1 h.
In data set [18] the test system is CWR22R. Description: Antitumor activity against human 22Rv1 cells xenografted in BALB/c nude mouse assessed as reduction in tumor size at 5 mg/kg, ip administered once every 4th day for 3 weeks. Format: functional, organism-based.
For data set [19], the system named is LNCaP. The data set is described as follows: Induction of apoptosis in human LNCaP cells assessed as increase in caspase-3 level at 1 uM measured after 48 hrs by Western blot analysis. Format: functional, cell-based.
The subject of data set [20] is CWR22R. The data set is described as follows: Induction of apoptosis in human 22Rv1 cells assessed as increase in PARP level at 1 uM measured after 48 hrs by Western blot analysis. Format: functional, cell-based.
Data set [21] relates to LNCaP. Description: Induction of apoptosis in human LNCaP cells assessed as increase in PARP level at 1 uM measured after 48 hrs by Western blot analysis. Type of data set: functional, cell-based.
Data set [22] has as its system CWR22R. The data set is described as follows: Induction of apoptosis in human 22Rv1 cells assessed as increase in caspase-3 level at 1 uM measured after 48 hrs by Western blot analysis. Type of data set: functional, cell-based.

Androgen receptor (Homo sapiens), P10275 [UNDEFINED MUTATION], sequence (P10275 whole entry, looked up, stated change not applied): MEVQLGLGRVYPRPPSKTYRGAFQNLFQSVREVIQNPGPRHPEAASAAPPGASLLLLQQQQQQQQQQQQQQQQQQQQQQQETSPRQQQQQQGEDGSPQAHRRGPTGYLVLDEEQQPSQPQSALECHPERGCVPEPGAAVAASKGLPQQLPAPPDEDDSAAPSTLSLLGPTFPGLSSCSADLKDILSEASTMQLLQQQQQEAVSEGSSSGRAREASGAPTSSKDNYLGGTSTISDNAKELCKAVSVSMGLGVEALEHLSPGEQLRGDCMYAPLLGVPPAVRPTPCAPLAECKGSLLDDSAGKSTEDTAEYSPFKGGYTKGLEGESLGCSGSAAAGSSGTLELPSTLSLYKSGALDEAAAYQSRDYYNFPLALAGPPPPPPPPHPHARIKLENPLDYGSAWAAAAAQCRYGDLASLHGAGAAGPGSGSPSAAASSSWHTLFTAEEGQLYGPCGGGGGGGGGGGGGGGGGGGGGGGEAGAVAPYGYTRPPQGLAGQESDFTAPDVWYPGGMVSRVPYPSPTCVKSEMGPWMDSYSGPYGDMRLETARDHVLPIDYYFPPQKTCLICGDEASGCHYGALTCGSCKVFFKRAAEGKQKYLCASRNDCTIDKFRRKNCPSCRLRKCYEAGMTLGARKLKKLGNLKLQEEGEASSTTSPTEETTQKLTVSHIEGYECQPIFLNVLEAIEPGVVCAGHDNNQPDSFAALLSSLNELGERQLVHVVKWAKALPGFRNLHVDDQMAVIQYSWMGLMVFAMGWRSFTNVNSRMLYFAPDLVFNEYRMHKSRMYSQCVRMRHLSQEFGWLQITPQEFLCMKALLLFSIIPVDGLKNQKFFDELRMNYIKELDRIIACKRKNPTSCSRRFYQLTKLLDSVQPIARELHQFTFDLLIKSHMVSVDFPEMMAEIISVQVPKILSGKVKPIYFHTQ

In the case of `CC(C)c1cc(-c2n[nH]c(=O)n2-c2ccc(CN3CCN(C(=O)CCCCCCNC(=O)c4ccc(C(=O)N[C@H]5CC[C@H](Oc6ccc(C#N)c(Cl)c6)CC5)cc4)CC3)cc2)c(O)cc1O`, the IC50 in the data set on LNCaP [1] and with CWR22R [2] was over 1 µM in each case.
Turning to `CC(C)c1cc(-c2n[nH]c(=O)n2-c2ccc(CN3CCN(CC4CCN(c5ccc(C(=O)N[C@H]6CC[C@H](Oc7ccc(C#N)c(Cl)c7)CC6)cn5)CC4)CC3)cc2)c(O)cc1O`, the IC50 in the data set on LNCaP [1] worked out at 0.11 µM; in the data set on CWR22R [2], 0.0459 µM.
Consider `CC(C)c1cc(-c2n[nH]c(=O)n2-c2ccc(CN3CCN(C(=O)CCCNC(=O)c4ccc(C(=O)N[C@H]5CC[C@H](Oc6ccc(C#N)c(Cl)c6)CC5)cc4)CC3)cc2)c(O)cc1O`, for which the IC50 in the data set with LNCaP [1] and in the data set with CWR22R [2] was over 1 µM each time.
As to `CC(C)c1cc(-c2n[nH]c(=O)n2-c2ccc(CN3CCN(C)CC3)cc2)c(O)cc1O`, the Activity entry in data set [3] is “Tde”; in data set [7] it was “Dose-Dependent Effect”. Moreover, the Drug uptake result in [4], in [5] and in data set [9] was “Not Active” each time. Further, the result in the data set with CWR22R [6] and in the data set on CWR22R [8] was inactive. Also, the IC50 with LNCaP [1] was 0.107 µM.
For `CC(C)c1cc(-c2n[nH]c(=O)n2-c2ccc(CN3CCN(CC4CCN(c5ncc(C(=O)N[C@H]6C(C)(C)[C@H](Oc7ccc(C#N)c(Cl)c7)C6(C)C)cn5)CC4)CC3)cc2)c(O)cc1O`, the IC50 in the data set with LNCaP [1] was found to be 0.188 µM; in the data set on CWR22R [2], 0.212 µM.
Consider `COc1cc(OC)c(C(C)C)cc1-c1nn(C)c(=O)n1-c1ccc(CN2CCN(CC3CCN(CC4CCN(c5ncc(C(=O)N[C@H]6CC[C@H](Oc7ccc(C#N)c(Cl)c7)CC6)cn5)CC4)CC3)CC2)cc1`, for which, in data set [3], the Activity result was “Tde”. Moreover, the IC50 in the data set on LNCaP [1] and with CWR22R [2] was over 1 µM in each case. Besides, the outcome in the data set on CWR22R [10] was Active.
As to `CC(C)c1cc(-c2n[nH]c(=O)n2-c2ccc(CN3CCN(C(=O)CCCCCN4/C(=C/C=C/C=C/C5=[N+](C)c6ccccc6C5(C)C)C(C)(C)c5ccccc54)CC3)cc2)c(O)cc1O`, the Drug uptake result in data set [11] is reported as “Not Active”; in [12] it was “Not Active”; in data set [13], “Not Active”; in [14] it was “Not Active”; in data set [15] it was “Active”; in data set [16], “Active”. Also, the Drug uptake result in [17] is “Not Active”.
`CC(C)c1cc(-c2n[nH]c(=O)n2-c2ccc(CN3CCN(C(=O)CCCCCNC(=O)c4ccc(C(=O)N[C@H]5CC[C@H](Oc6ccc(C#N)c(Cl)c6)CC5)cc4)CC3)cc2)c(O)cc1O`: the IC50 in the data set on LNCaP [1] and with CWR22R [2] was over 1 µM each time.
Turning to `CC(C)c1cc(-c2n[nH]c(=O)n2-c2ccc(CN3CCN(CC4CCN(c5ncc(C(=O)N[C@H]6CC[C@H](Oc7ccc(C#N)c(Cl)c7)CC6)cn5)CC4)CC3)cc2)c(O)cc1O`, the IC50 was found to be 0.0738 µM in the data set with LNCaP [1] and 0.0343 µM in the data set on CWR22R [2]. In the data set with CWR22R [18], the outcome was Active.
For `N#Cc1ccc(O[C@H]2CC[C@H](NC(=O)c3cccnn3)CC2)cc1Cl`, the outcome in the data set with LNCaP [19], in the data set on CWR22R [20], in the data set on LNCaP [21] and with CWR22R [22] was inactive. In addition, the IC50 in the data set on LNCaP [1] is 0.336 µM.
Take `CC(C)c1cc(-c2n[nH]c(=O)n2-c2ccc(CN3CCN(CC4CCN(C(=O)c5ccc(C(=O)N[C@H]6CC[C@H](Oc7ccc(C#N)c(Cl)c7)CC6)cc5)CC4)CC3)cc2)c(O)cc1O`: the results for the IC50 with LNCaP [1] and with CWR22R [2] were 0.112 µM and 0.0655 µM, respectively.
On to `CC(C)c1cc(-c2n[nH]c(=O)n2-c2ccc(CN3CCN(CC4CCN(c5ncc(C(=O)N[C@H]6CC[C@H](Oc7ccc(C#N)c(C(F)(F)F)c7)CC6)cn5)CC4)CC3)cc2)c(O)cc1O`, for which the IC50 with LNCaP [1] is 0.267 µM; in the data set with CWR22R [2], 0.0899 µM.
For `N#Cc1ccc(O[C@H]2CC[C@H](NC(=O)c3cncnc3)CC2)cc1Cl`, the outcome with LNCaP [19], with CWR22R [20], in the data set on LNCaP [21] and with CWR22R [22] was inactive. In addition, the IC50 in the data set with LNCaP [1] was found to be 0.153 µM.

The IC50 is the concentration at which inhibition is half-maximal.
